According to US9751869B2, “LXR modulators” (BRISTOL-MYERS SQUIBB COMPANY, priority 2013, dated 2017):

Biological target: T1, LXRβ (Homo sapiens, UniProt P55055)
T1 construct: Co-transfection expression plasmids, comprising full-length LXRα (pCMX-h LXRα or LXRβ (pCMX-hLXRβ)); expressed in transfected cells; host or cells: CV-1 African green monkey kidney cells, transient transfection with pCMX-hLXRβ
T1 sequence (P55055 1-460): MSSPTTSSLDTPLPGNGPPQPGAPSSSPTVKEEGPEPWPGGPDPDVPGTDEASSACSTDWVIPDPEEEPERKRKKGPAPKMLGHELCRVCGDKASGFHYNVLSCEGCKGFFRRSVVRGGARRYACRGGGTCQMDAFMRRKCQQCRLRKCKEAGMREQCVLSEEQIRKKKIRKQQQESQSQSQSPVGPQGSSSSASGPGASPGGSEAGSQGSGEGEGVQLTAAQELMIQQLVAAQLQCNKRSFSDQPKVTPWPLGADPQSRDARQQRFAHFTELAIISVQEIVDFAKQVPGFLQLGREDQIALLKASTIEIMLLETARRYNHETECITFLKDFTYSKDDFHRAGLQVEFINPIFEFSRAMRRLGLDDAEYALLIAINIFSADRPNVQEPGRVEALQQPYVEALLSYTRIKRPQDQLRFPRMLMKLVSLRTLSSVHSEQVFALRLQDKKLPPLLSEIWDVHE
T1 sequence (P19793 1-462 partner): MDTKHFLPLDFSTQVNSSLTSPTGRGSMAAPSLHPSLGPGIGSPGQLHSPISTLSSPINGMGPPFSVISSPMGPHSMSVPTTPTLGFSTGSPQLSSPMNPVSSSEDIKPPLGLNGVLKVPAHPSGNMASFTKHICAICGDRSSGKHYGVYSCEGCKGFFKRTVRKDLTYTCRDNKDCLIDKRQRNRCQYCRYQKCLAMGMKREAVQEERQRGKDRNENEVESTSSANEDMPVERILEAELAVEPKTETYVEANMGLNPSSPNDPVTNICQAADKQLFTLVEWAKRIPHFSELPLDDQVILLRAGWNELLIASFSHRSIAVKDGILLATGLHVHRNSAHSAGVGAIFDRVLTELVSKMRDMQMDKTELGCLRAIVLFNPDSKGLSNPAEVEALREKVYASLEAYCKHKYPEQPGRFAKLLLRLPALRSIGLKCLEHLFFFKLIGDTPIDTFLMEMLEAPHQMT
Assay: LXR/LXRE co-transfection assay (luciferase reporter) in CV-1 cells, LXRβ
Type: cell-based
Conditions: for EC50: CV-1 cells transfected with pCMX-hLXRβ and LXREx1-Tk-Luciferase, 20 hours incubation, read-out: LXRbeta agonism EC50; for Emax: CV-1 cells, relative to maximum response of high control N-(3-((4-fluorophenyl)-(naphthalene-2-sulfonyl)amino)propyl)-2,2-dimethylpropionamide, read-out: LXRbeta % EFFICACY
Summary of the method: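 CV-1 cells transiently co-transfected with full-length human LXRβ, LXRE-Tk-luciferase reporter and β-galactosidase control, then exposed to compound (≤0.5% DMSO) for 20 h at 37 °C before luminescence read. EC50 from 10-point, half-log dose curves; efficacy relative to the sulfonamide high control, means of 2–3 experiments.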

Row | EC50 [nM] | Emax [%] | Structure (SMILES)
1 | 163 | 89 | COCC(F)(F)c1cc(-c2ccc(-c3cccc(S(C)(=O)=O)c3)cc2-n2nncc2-c2ccc(OC(F)(F)F)cc2)n(C)n1 [Example 16, 1-[4-{3-[1,1-difluoro-2-(methyloxy)ethyl]-1-methyl-1H-pyrazol-5-yl}-3′-(methylsulfonyl)biphenyl-3-yl]-5-{4-[(trifluoromethyl)oxy]phenyl}-1H-1,2,3-triazole]
2 | 66 | 91 | Cc1nc(-c2ccc3c(c2)OC(F)(F)O3)c(-c2cc(-c3cccc(S(C)(=O)=O)c3)ccc2-n2ccc(C(F)(F)F)n2)o1 [Example 350, 4-(2,2-difluorobenzo[d][1,3]dioxol-5-yl)-2-methyl-5-(3′-(methylsulfonyl)-4-(3-(trifluoromethyl)-1H-pyrazol-1-yl)biphenyl-3-yl)oxazole]
3 | 73 | 75 | Cc1nc(-c2ccc(OC(F)(F)F)cc2)c(-c2cc(-c3cccc(S(C)(=O)=O)c3)ccc2-n2nc(C(F)(F)F)cc2Cl)o1 [Example 345, 5-(4-(5-chloro-3-(trifluoromethyl)-1H-pyrazol-1-yl)-3′-(methylsulfonyl)biphenyl-3-yl)-2-methyl-4-(4-(trifluoromethoxy)phenyl)oxazole]
4 | 148 | 47 | Cc1nc(-c2ccc3c(c2)OC(F)(F)O3)c(-c2cc(-c3cc(F)c(CO)c(S(C)(=O)=O)c3)ccc2-c2cc(C(C)O)nn2C)o1 (centres unmarked) [Example 103, 1-(5-(3-(4-(2,2-difluorobenzo[d][1,3]dioxol-5-yl)-2-methyloxazol-5-yl)-3′-fluoro-4′-(hydroxymethyl)-5′-(methylsulfonyl)-[1,1′-biphenyl]-4-yl)-1-methyl-1H-pyrazol-3-yl)ethanol]
5 | 529 | 30 | Cc1nc(-c2ccc3c(c2)OC(F)(F)O3)c(-c2cc(-c3cc(F)c(CO)c(S(C)(=O)=O)c3)ccc2-c2cc(C(=O)NC3CC3)nn2C)o1 [Example 108, N-cyclopropyl-5-(3-(4-(2,2-difluorobenzo[d][1,3]dioxol-5-yl)-2-methyloxazol-5-yl)-3′-fluoro-4′-(hydroxymethyl)-5′-(methylsulfonyl)-[1,1′-biphenyl]-4-yl)-1-methyl-1H-pyrazole-3-carboxamide]
6 | 13 | 78 | Cc1nc(-c2ccc(OC(F)F)c(F)c2)c(-c2cc(-c3cc(F)c(CO)c(S(C)(=O)=O)c3)ccc2-n2cc(Cl)c(C(F)(F)F)n2)o1 [Example 434, (4′-(4-chloro-3-(trifluoromethyl)-1H-pyrazol-1-yl)-3′-(4-(4-(difluoromethoxy)-3-fluorophenyl)-2-methyloxazol-5-yl)-3-fluoro-5-(methylsulfonyl)-[1,1′-biphenyl]-4-yl)methanol]
7 | 19 | 79 | Cc1nc(-c2ccc(OC(F)F)cc2Cl)c(-c2cc(-c3cc(F)c(CO)c(S(C)(=O)=O)c3)ccc2-n2cc(Cl)c(C(F)(F)F)n2)o1 [Example 432, (4′-(4-chloro-3-(trifluoromethyl)-1H-pyrazol-1-yl)-3′-(4-(2-chloro-4-(difluoromethoxy)phenyl)-2-methyloxazol-5-yl)-3-fluoro-5-(methylsulfonyl)-[1,1′-biphenyl]-4-yl)methanol]
8 | 24 | 42 | Cc1nc(-c2cc(-c3cc(F)c(CO)c(S(C)(=O)=O)c3)ccc2-c2cc(C(C)(C)C(C)(C)O)nn2C)c(-c2ccc3c(c2)OC(F)(F)O3)o1 [Example 64, 3-(5-(3-(5-(2,2-difluorobenzo[d][1,3]dioxol-5-yl)-2-methyloxazol-4-yl)-3′-fluoro-4′-(hydroxymethyl)-5′-(methylsulfonyl)biphenyl-4-yl)-1-methyl-1H-pyrazol-3-yl)-2,3-dimethylbutan-2-ol]
9 | 14 | 67 | CS(=O)(=O)c1cc(-c2ccc(-n3ccc(C(F)(F)F)n3)c(-c3nc(C4CC4)oc3-c3ccc(OC(F)(F)F)cc3)c2)cc(F)c1CO [Example 402, (3′-(2-cyclopropyl-5-(4-(trifluoromethoxy)phenyl)oxazol-4-yl)-3-fluoro-5-(methylsulfonyl)-4′-(3-(trifluoromethyl)-1H-pyrazol-1-yl)biphenyl-4-yl)methanol]
10 | 38 | 53 | Cc1nc(-c2cc(-c3cc(F)c(CO)c(S(C)(=O)=O)c3)ccc2-n2ccc(C(F)(F)F)n2)c(-c2ccc(Cl)cc2)o1 [Example 400, (3′-(5-(4-chlorophenyl)-2-methyloxazol-4-yl)-3-fluoro-5-(methylsulfonyl)-4′-(3-(trifluoromethyl)-1H-pyrazol-1-yl)biphenyl-4-yl)methanol]
11 | 165 | 56 | Cc1cc(C(F)(F)F)n(-c2ccc(-c3cc(F)c(CO)c(S(C)(=O)=O)c3)cc2-c2nc(C)oc2-c2ccc(OC(F)F)cc2)n1 [Example 391, (3′-(5-(4-(difluoromethoxy)phenyl)-2-methyloxazol-4-yl)-3-fluoro-4′-(3-methyl-5-(trifluoromethyl)-1H-pyrazol-1-yl)-5-(methylsulfonyl)biphenyl-4-yl)methanol]
12 | 8 | 72 | Cc1nc(-c2ccc(OC(F)F)nc2)c(-c2cc(-c3cc(F)c(CO)c(S(C)(=O)=O)c3)ccc2-n2cc(Cl)c(C(F)(F)F)n2)o1 [Example 426, (4′-(4-chloro-3-(trifluoromethyl)-1H-pyrazol-1-yl)-3′-(4-(6-(difluoromethoxy)pyridin-3-yl)-2-methyloxazol-5-yl)-3-fluoro-5-(methylsulfonyl)-[1,1′-biphenyl]-4-yl) methanol]
13 | 29 | 51 | Cc1nc(-c2ccc3c(c2)OC(F)(F)O3)c(-c2cc(-c3cc(F)c(CO)c(S(C)(=O)=O)c3)ccc2-c2cc(C(C)(C)c3nnco3)nn2C)o1 [Example 68, (4′-(3-(2-(1,3,4-oxadiazol-2-yl)propan-2-yl)-1-methyl-1H-pyrazol-5-yl)-3′-(4-(2,2-difluorobenzo[d][1,3]dioxol-5-yl)-2-methyloxazol-5-yl)-3-fluoro-5-(methylsulfonyl)biphenyl-4-yl)methanol]
14 | 73 | 60 | Cc1nc(-c2ccc(OC(F)F)c(F)c2)c(-c2cc(-c3cccc(S(C)(=O)=O)c3)ccc2-c2cc(C(F)(F)C(N)=O)nn2C)o1 [Example 72, 2-(5-(3-(4-(4-(difluoromethoxy)-3-fluorophenyl)-2-methyloxazol-5-yl)-3′-(methylsulfonyl)biphenyl-4-yl)-1-methyl-1H-pyrazol-3-yl)-2,2-difluoroacetamide]
15 | 125 | 86 | Cc1nc(-c2ccc(OC(F)(F)F)cc2)c(-c2cc(-c3cc(F)c(CO)c(S(C)(=O)=O)c3)ccc2-n2ccc(CC#N)n2)o1 [Example 370]
16 | 19 | 90 | Cc1nc(-c2cc(-c3cc(F)c(CO)c(S(C)(=O)=O)c3)ccc2-n2nc(C(F)(F)F)cc2Cl)c(-c2ccc3c(c2)OC(F)(F)O3)o1 [Example 411, (4′-(5-chloro-3-(trifluoromethyl)-1H-pyrazol-1-yl)-3′-(5-(2,2-difluorobenzo[d][1,3]dioxol-5-yl)-2-methyloxazol-4-yl)-3-fluoro-5-(methylsulfonyl)biphenyl-4-yl)methanol]
17 | 2730 | 91 | Cn1nc(C(F)(F)CO)cc1-c1ccc(-c2cc(F)c(CO)c(S(C)(=O)=O)c2)cc1-n1nncc1-c1ccc2c(c1)OC(F)(F)O2 [Example 36, 2-(5-(3-(5-(2,2-difluorobenzo[d][1,3]dioxol-5-yl)-1H-1,2,3-triazol-1-yl)-3′-fluoro-4′-(hydroxymethyl)-5′-(methylsulfonyl)-[1,1′-biphenyl]-4-yl)-1-methyl-1H-pyrazol-3-yl)-2,2-difluoroethanol]
18 | 299 | 85 | Cc1nc(-c2ccc(OC(F)(F)F)cc2)c(-c2cc(-c3cccc(S(N)(=O)=O)c3)ccc2-c2cc(C(F)(F)F)nn2C)o1 [Example 126, 4′-(1-methyl-3-(trifluoromethyl)-1H-pyrazol-5-yl)-3′-(2-methyl-4-(4-(trifluoromethoxy)phenyl)oxazol-5-yl)-[1,1′-biphenyl]-3-sulfonamide]
19 | 21 | 76 | Cc1nc(-c2cc(F)c(OC(F)F)c(F)c2)c(-c2cc(-c3cccc(S(C)(=O)=O)c3)ccc2-n2cc(Cl)c(C(F)(F)F)n2)o1 [Example 421]
